Data on 2 compounds can be found in publication PMC12298423, “Characterization of Novel ACE-Inhibitory Peptides from Nemopilema nomurai Jellyfish Venom Hydrolysate: In Vitro and In Silico Approaches” (Marine Drugs, 2025).

For data set [1], the system named is pepsin, trypsin and chymotrypsin. In words: Resistance to simulated GI digestion assay. It counts as in vitro ADME. The following applies: peptide 100 and 200 µM; pepsin 0.01% pH 2.0, 37 °C, 3 h, then trypsin and chymotrypsin each 0.01% pH 7.5, 3 h; read-out ACE-inhibitory activity; triplicate. On the procedure: The stability of the synthesized peptides against gastrointestinal proteases was evaluated using a slightly modified method based on Dong et al. (2024). Peptide solutions at concentrations of 100 and 200 µM were sequentially subjected to enzymatic digestion. Initially, the peptides were incubated with pepsin (0.01%, pH 2.0) at 37 °C for 3 h. This was followed by a second digestion step with trypsin and chymotrypsin (each at 0.01%, pH 7.5) for an additional 3 h under the same temperature conditions. To terminate enzymatic activity, the reaction mixtures were boiled for 10 min. The samples were then centrifuged at 8000× g for 15 min, and the resulting supernatants were collected. The ACE-inhibitory activity of the digested peptide solutions was subsequently analyzed to assess their enzymatic stability.

Data set [2] concerns the target T1, angiotensin-converting enzyme (ACE) (Homo sapiens, UniProt P12821).
T1 construct: purchased Dojindo Laboratories, Kumamoto, Japan
In words: ACE-inhibitory activity, ACE Kit-WST (Dojindo). It counts as biochemical. The following applies: peptide 0.01-1000 µM, 37 °C 1 h, absorbance 450 nm, triplicate, read-out: IC50 (ACE inhibition). On the procedure: The ACE-inhibitory activity of the peptides was evaluated in vitro using the Dojindo assay kit, following the same procedure as described in our previous study. […] Captopril was used as a positive control to validate the assay system. To assess the stability of the peptides under simulated gastrointestinal (GI) conditions, a two-step enzymatic hydrolysis was conducted. The ACE-inhibitory activity of the peptides was measured both before and after digestion (Figure 1B,C).
The ACE-inhibitory activity of the peptides was assessed using the ACE Kit-WST (Dojindo Laboratories, Kumamoto, Japan) following the manufacturer’s protocol. Both peptides were dissolved in distilled water, and serial dilutions were prepared at concentrations of 0.01, 0.10, 1, 10, 100, and 1000 µM. Captopril was used as the positive control. For the assay, 20 µL of each sample solution was added to the designated wells, including the sample, blank 1, and blank 2 wells. Subsequently, 20 µL of substrate buffer was added to all wells. […] Absorbance was measured at 450 nm using a microplate reader. ACE-inhibitory activity was calculated using the following equation:ACE inhibition (%) = (Ablank1 − Asample)/(Ablank1 − Ablank2) × 100 where Ablank1 is the absorbance of the control (without inhibitor), Ablank2 is the absorbance of the reagent alone, and Asample is the absorbance of the peptide-treated sample.

In data set [3] the target is ACE (Homo sapiens, UniProt P12821). In words: Lineweaver–Burk plot and secondary plot (ACE inhibition kinetics). It counts as biochemical. The settings on record: secondary plot from Lineweaver–Burk plots; substrate HHL 0.625 to 20 mM. On the procedure: The inhibition pattern of the peptides against ACE was analyzed using Lineweaver–Burk plots. ACE activity was measured at varying concentrations of each peptide (IGDEPRHQYL: 0, 5, and 10 µM; IVGRPLANG: 0, 20, and 40 µM) in the presence of different concentrations of the substrate hippuryl-histidyl-leucine (HHL), ranging from 0.625 to 20 mM. The Michaelis constant (Km) and maximum reaction velocity (Vmax) were calculated from the slope and y-intercept of the Lineweaver–Burk plots. Additionally, secondary plots were generated to determine the inhibition constant (Ki) values for each peptide based on the derived Km and Vmax values.
ACE, sequence (P12821 30-1306, species assumed): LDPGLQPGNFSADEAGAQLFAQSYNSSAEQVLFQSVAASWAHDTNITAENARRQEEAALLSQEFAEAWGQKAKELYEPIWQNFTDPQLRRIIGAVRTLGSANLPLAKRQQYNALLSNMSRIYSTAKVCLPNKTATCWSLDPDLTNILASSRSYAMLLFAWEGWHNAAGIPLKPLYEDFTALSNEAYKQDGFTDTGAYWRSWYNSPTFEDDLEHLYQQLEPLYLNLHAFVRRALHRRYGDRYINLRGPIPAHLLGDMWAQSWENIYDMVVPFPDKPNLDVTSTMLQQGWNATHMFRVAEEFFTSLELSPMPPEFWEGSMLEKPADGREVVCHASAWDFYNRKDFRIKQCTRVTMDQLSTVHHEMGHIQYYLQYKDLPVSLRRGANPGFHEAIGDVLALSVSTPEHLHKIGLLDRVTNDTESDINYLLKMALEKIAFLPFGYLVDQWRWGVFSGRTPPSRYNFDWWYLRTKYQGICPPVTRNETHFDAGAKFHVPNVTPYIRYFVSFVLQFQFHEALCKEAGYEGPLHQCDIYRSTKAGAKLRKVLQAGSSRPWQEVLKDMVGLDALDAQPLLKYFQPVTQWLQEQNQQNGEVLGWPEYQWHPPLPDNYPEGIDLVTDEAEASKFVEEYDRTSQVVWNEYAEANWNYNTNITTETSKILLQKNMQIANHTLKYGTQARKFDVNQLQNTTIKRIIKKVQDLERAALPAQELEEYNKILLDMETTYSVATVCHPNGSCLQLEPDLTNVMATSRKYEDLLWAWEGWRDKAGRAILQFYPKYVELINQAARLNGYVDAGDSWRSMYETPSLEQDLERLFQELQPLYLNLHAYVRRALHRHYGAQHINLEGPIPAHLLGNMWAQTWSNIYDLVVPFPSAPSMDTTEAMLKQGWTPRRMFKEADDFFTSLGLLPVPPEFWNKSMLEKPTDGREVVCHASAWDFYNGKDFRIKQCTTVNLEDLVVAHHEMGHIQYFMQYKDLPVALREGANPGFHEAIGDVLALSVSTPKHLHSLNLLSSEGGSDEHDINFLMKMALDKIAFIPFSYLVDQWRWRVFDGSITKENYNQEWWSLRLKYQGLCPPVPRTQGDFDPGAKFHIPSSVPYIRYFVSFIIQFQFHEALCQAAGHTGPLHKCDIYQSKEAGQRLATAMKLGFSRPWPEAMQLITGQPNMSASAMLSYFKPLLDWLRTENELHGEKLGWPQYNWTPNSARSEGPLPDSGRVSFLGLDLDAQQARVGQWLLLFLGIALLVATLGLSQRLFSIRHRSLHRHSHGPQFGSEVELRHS

Peptide text beside a SMILES is read from it.

T1 sequence (P12821 30-1306, species assumed): as above

A word on the IC50: it is the point on the concentration scale where inhibition reaches its midpoint. The Ki is a dissociation constant, usually derived from enzyme kinetics or from competition with a known ligand. Low readings indicate higher affinity, high ones lower affinity. With `CC[C@H](C)[C@H](N)C(=O)NCC(=O)N[C@@H](CC(=O)O)C(=O)N[C@@H](CCC(=O)O)C(=O)N1CCC[C@H]1C(=O)N[C@@H](CCCNC(=N)N)C(=O)N[C@@H](Cc1c[nH]cn1)C(=O)N[C@@H](CCC(N)=O)C(=O)N[C@@H](Cc1ccc(O)cc1)C(=O)N[C@@H](CC(C)C)C(=O)O` [IGDEPRHQYL] (H-IGDEPRHQYL-OH), the “ACE-inhibitory activity before and after simulated GI digestion” value in data set [1] was “retained their ACE-inhibitory activity”. In data set [2], the concentration for half-maximal inhibition (IC50) came out at 5.68 µM. The inhibitory constant (Ki) in data set [3] is 5.46 µM.
`CC[C@H](C)[C@H](N)C(=O)N[C@H](C(=O)NCC(=O)N[C@@H](CCCNC(=N)N)C(=O)N1CCC[C@H]1C(=O)N[C@@H](CC(C)C)C(=O)N[C@@H](C)C(=O)N[C@@H](CC(N)=O)C(=O)NCC(=O)O)C(C)C` [IVGRPLANG] (H-IVGRPLANG-OH): in data set [1], the “ACE-inhibitory activity before and after simulated GI digestion” value is recorded as “retained their ACE-inhibitory activity”. Also, the half-maximal inhibitory concentration (IC50) in data set [2] is 23.8 µM. The same compound showed an inhibition constant Ki in data set [3] of 51.4 µM.
